# Results as given in ChEMBL document CHEMBL4330134, “Design, synthesis, and bioevaluation of a novel class of (E)-4-oxo-crotonamide derivatives as potent antituberculosis agents” (Bioorg Med Chem Lett, 2019).
# System: Mycobacterium tuberculosis
# Assay: Antimycobacterial activity against Mycobacterium tuberculosis H37Rv ATCC 27294
# Type: functional
# Settings: not given
row,Structure (SMILES),MIC
1,COC(=O)/C=C/C(=O)c1ccc(OC)cc1,0.25 µg/mL

# System: Mycobacterium tuberculosis
# Assay: Antimycobacterial activity against Mycobacterium tuberculosis H37Rv ATCC 27294 after 4 days by microplate Alamar blue assay
# Type: functional
# Settings: H37Rv ATCC 27294, 96 h
row,Structure (SMILES),MIC
1,COC(=O)/C=C/C(=O)c1ccc(OC)cc1,0.25 µg/mL
2,CN(C)C(=O)/C=C/C(=O)c1ccc(-c2ccccc2)cc1,0.125 µg/mL
3,COc1ccccc1C(=O)/C=C/C(=O)OCCNC(=O)OC(C)(C)C,> 4 µg/mL
4,CCCN(CCC)C(=O)/C=C/C(=O)c1ccc(F)cc1,0.95 µg/mL
5,CCOC(=O)/C=C/C(=O)c1ccc(OC)cc1,0.46 µg/mL
6,CCCN(CCC)C(=O)/C=C/C(=O)c1ccccc1OC,> 2 µg/mL
7,O=C(O)/C=C/C(=O)c1ccc(OCc2ccccc2)cc1,> 4 µg/mL
8,O=C(O)/C=C/C(=O)c1ccc2c(c1)OCO2,> 4 µg/mL
9,CC(C)OC(=O)/C=C/C(=O)c1ccc(Br)cc1,0.41 µg/mL
10,CN(C)C(=O)/C=C/C(=O)c1cccc(Cl)c1,0.89 µg/mL
11,CC(C)(C)OC(=O)NCCOC(=O)/C=C/C(=O)c1ccc(-c2ccccc2)cc1,1.23 µg/mL
12,CCCN(CCC)C(=O)/C=C/C(=O)c1ccc([N+](=O)[O-])cc1,1.89 µg/mL
13,CCN(C)C(=O)/C=C/C(=O)c1ccccc1[N+](=O)[O-],0.24 µg/mL
14,CCOC(=O)/C=C/C(=O)c1ccccc1OC,1.82 µg/mL
15,CCCN(CCC)C(=O)/C=C/C(=O)c1cccc(C(F)(F)F)c1,> 2 µg/mL
16,O=C(O)/C=C/C(=O)c1ccc2c(c1)CCO2,> 4 µg/mL
17,CCOC(=O)/C=C/C(=O)c1cccc(OC)c1,0.82 µg/mL
18,CC(C)(C)OC(=O)NCCOC(=O)/C=C/C(=O)c1ccc(Br)cc1,> 4 µg/mL
19,COC(=O)/C=C/C(=O)c1ccccc1OC,0.99 µg/mL
20,CCN(C)C(=O)/C=C/C(=O)c1cccc(Cl)c1,0.97 µg/mL
21,CCOc1ccc(C(=O)/C=C/C(=O)N(C)CC)cc1,0.48 µg/mL
22,COc1ccc(OC)c(C(=O)/C=C/C(=O)OC(C)C)c1,1.48 µg/mL

row,Structure (SMILES),MIC
1,COC(=O)/C=C/C(=O)C1CC1,> 4 µg/mL
2,CC(C)OC(=O)/C=C/C(=O)c1ccc2c(c1)OCO2,0.87 µg/mL
3,CC(C)(C)OC(=O)NCCOC(=O)/C=C/C(=O)c1ccc(OCc2ccccc2)cc1,1.91 µg/mL
4,CCN(C)C(=O)/C=C/C(=O)c1ccc(Cl)cc1,0.24 µg/mL
5,O=C(O)/C=C/C(=O)C1CC1,> 4 µg/mL
6,CCN(C)C(=O)/C=C/C(=O)c1ccccc1Cl,0.65 µg/mL
7,CC(C)(C)OC(=O)NCCOC(=O)/C=C/C(=O)c1cccc2ccccc12,> 4 µg/mL
8,COc1ccc(OC)c(C(=O)/C=C/C(=O)O)c1,> 4 µg/mL
9,COc1cccc(C(=O)/C=C/C(=O)OCCNC(=O)OC(C)(C)C)c1,> 4 µg/mL
10,CC(C)OC(=O)/C=C/C(=O)c1ccc2c(c1)CCO2,1.02 µg/mL
11,CCOC(=O)/C=C/C(C)=O,3.51 µg/mL
12,COc1ccc(C(=O)/C=C/C(=O)O)cc1,> 4 µg/mL
13,CCOC(=O)/C=C/C(=O)c1ccc(OCC)cc1,0.54 µg/mL
14,COc1ccc(C(=O)/C=C/C(=O)O)cc1OC,> 4 µg/mL
15,COC(=O)/C=C/C(=O)c1ccc(C)cc1,0.37 µg/mL
16,CCN(C)C(=O)/C=C/C(=O)c1cccc(F)c1,0.48 µg/mL
17,COc1ccccc1C(=O)/C=C/C(=O)N(C)C,0.92 µg/mL
18,CCN(C)C(=O)/C=C/C(=O)c1ccc(Cl)cc1Cl,> 2 µg/mL
19,CCCN(CCC)C(=O)/C=C/C(=O)c1cccc([N+](=O)[O-])c1,> 2 µg/mL
20,CCOC(=O)/C=C/C(=O)c1ccc(Cl)cc1Cl,1.09 µg/mL
21,O=C(O)/C=C/C(=O)c1ccc(-c2ccccc2)cc1,> 4 µg/mL
22,CCOc1ccc(C(=O)/C=C/C(=O)OCCNC(=O)OC(C)(C)C)cc1,1.45 µg/mL

row,Structure (SMILES),MIC
1,CN(C)C(=O)/C=C/C(=O)c1ccc(F)cc1,0.47 µg/mL
2,COc1ccc(C(=O)/C=C/C(=O)OCCNC(=O)OC(C)(C)C)cc1OC,> 4 µg/mL
3,CCOc1ccc(C(=O)/C=C/C(=O)O)cc1,> 4 µg/mL
4,Cc1ccc(C(=O)/C=C/C(=O)OC(C)C)cc1,0.77 µg/mL
5,COC(=O)/C=C/C(=O)c1ccc(OC)c(OC)c1,0.44 µg/mL
6,COC(=O)/C=C/C(=O)C1CCCCC1,1.2 µg/mL
7,CN(C)C(=O)/C=C/C(=O)c1ccc(Br)cc1,0.25 µg/mL
8,CN(C)C(=O)/C=C/C(=O)c1cccc([N+](=O)[O-])c1,> 2 µg/mL
9,COC(=O)/C=C/C(=O)c1ccc(Cl)cc1Cl,1.85 µg/mL
10,CCOc1ccc(C(=O)/C=C/C(=O)N(C)C)cc1,0.48 µg/mL
11,COC(=O)/C=C/C(=O)c1ccc2c(c1)OCO2,0.38 µg/mL
12,CCN(C)C(=O)/C=C/C(=O)c1ccc(F)cc1,0.25 µg/mL
13,CN(C)C(=O)/C=C/C(=O)c1ccc([N+](=O)[O-])cc1,0.93 µg/mL
14,COc1ccccc1C(=O)/C=C/C(=O)O,> 4 µg/mL
15,COc1ccc(OC)c(C(=O)/C=C/C(=O)OCCNC(=O)OC(C)(C)C)c1,> 4 µg/mL
16,CCOC(=O)/C=C/C(=O)C1CCCCC1,> 4 µg/mL
17,CCN(C)C(=O)/C=C/C(=O)c1cccc(C(F)(F)F)c1,> 2 µg/mL
18,CCN(C)C(=O)/C=C/C(=O)c1ccccc1OC,0.95 µg/mL
19,CC(C)(C)OC(=O)NCCOC(=O)/C=C/C(=O)c1ccc2c(c1)CCO2,> 4 µg/mL
20,CC(C)(C)OC(=O)NCCOC(=O)/C=C/C(=O)c1ccc(Cl)cc1Cl,> 4 µg/mL
21,CCOC(=O)/C=C/C(=O)c1ccc(OC)c(OC)c1,0.82 µg/mL
22,CCOC(=O)/C=C/C(=O)c1ccc(Br)cc1,0.52 µg/mL

# System: Mycobacterium tuberculosis
# Assay: Antimycobacterial activity against Mycobacterium tuberculosis isolate 19809 after 4 days by microplate Alamar blue assay
# Type: functional
# Settings: isolate 19809, 96 h
row,Structure (SMILES),MIC
1,CN(C)C(=O)/C=C/C(=O)c1ccc(-c2ccccc2)cc1,0.48 µg/mL

# System: Mycobacterium tuberculosis
# Assay: Antimycobacterial activity against Mycobacterium tuberculosis isolate 19852 after 4 days by microplate Alamar blue assay
# Type: functional
# Settings: isolate 19852, 96 h
row,Structure (SMILES),MIC
1,CN(C)C(=O)/C=C/C(=O)c1ccc(-c2ccccc2)cc1,0.19 µg/mL

# System: Mycobacterium tuberculosis
# Assay: Antimycobacterial activity against Mycobacterium tuberculosis isolate 19874 after 4 days by microplate Alamar blue assay
# Type: functional
# Settings: isolate 19874, 96 h
row,Structure (SMILES),MIC
1,CN(C)C(=O)/C=C/C(=O)c1ccc(-c2ccccc2)cc1,0.23 µg/mL

# System: Mycobacterium tuberculosis
# Assay: Antimycobacterial activity against Mycobacterium tuberculosis isolate 19769 after 4 days by microplate Alamar blue assay
# Type: functional
# Settings: isolate 19769, 96 h
row,Structure (SMILES),MIC
1,CN(C)C(=O)/C=C/C(=O)c1ccc(-c2ccccc2)cc1,0.43 µg/mL

# System: Mycobacterium tuberculosis
# Assay: Antimycobacterial activity against Mycobacterium tuberculosis isolate 19675 after 4 days by microplate Alamar blue assay
# Type: functional
# Settings: isolate 19675, 96 h
row,Structure (SMILES),MIC
1,CN(C)C(=O)/C=C/C(=O)c1ccc(-c2ccccc2)cc1,0.45 µg/mL

# System: Mycobacterium tuberculosis
# Assay: Antimycobacterial activity against Mycobacterium tuberculosis isolate 19863 after 4 days by microplate Alamar blue assay
# Type: functional
# Settings: isolate 19863, 96 h
row,Structure (SMILES),MIC
1,CN(C)C(=O)/C=C/C(=O)c1ccc(-c2ccccc2)cc1,0.23 µg/mL

# System: Mycobacterium tuberculosis
# Assay: Antimycobacterial activity against Mycobacterium tuberculosis isolate 19805 after 4 days by microplate Alamar blue assay
# Type: functional
# Settings: isolate 19805, 96 h
row,Structure (SMILES),MIC
1,CN(C)C(=O)/C=C/C(=O)c1ccc(-c2ccccc2)cc1,0.25 µg/mL

# System: Mycobacterium tuberculosis
# Assay: Antimycobacterial activity against Mycobacterium tuberculosis isolate 19806 after 4 days by microplate Alamar blue assay
# Type: functional
# Settings: isolate 19806, 96 h
row,Structure (SMILES),MIC
1,CN(C)C(=O)/C=C/C(=O)c1ccc(-c2ccccc2)cc1,0.23 µg/mL

# System: Mycobacterium tuberculosis
# Assay: Antimycobacterial activity against Mycobacterium tuberculosis isolate 19810 after 4 days by microplate Alamar blue assay
# Type: functional
# Settings: isolate 19810, 96 h
row,Structure (SMILES),MIC
1,CN(C)C(=O)/C=C/C(=O)c1ccc(-c2ccccc2)cc1,0.12 µg/mL

# System: Mycobacterium tuberculosis
# Assay: Antimycobacterial activity against Mycobacterium tuberculosis isolate 11168 after 4 days by microplate Alamar blue assay
# Type: functional
# Settings: isolate 11168, 96 h
row,Structure (SMILES),MIC
1,CN(C)C(=O)/C=C/C(=O)c1ccc(-c2ccccc2)cc1,0.05 µg/mL

# System: not listed separately
# Assay: Toxicity in po dosed BALB/c mouse
# Type: organism-based
# Settings: in vivo
row,Structure (SMILES),LD50
1,COC(=O)/C=C/C(=O)c1ccc(OC)cc1,568 mg/kg
